# Test results reported in US10640495B2, “Heterocycle derivatives having TrkA inhibitory activity” (Shionogi & Co., Ltd., priority 2015, dated 2020).
# Target: human TrkA (Homo sapiens (Human), UniProt P04629)
# Experiment: Human TrkA inhibition assay (Test Example 2)
# Format: biochemical
# Conditions: Table 155, human TrkA inhibition; read-out: IC50
# In short: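 Recombinant TrkA (1 nmol/L) was preincubated 15 min at room temperature with compound in HEPES/MgCl2/DTT buffer, then reacted with FL-peptide 27 (1.5 μmol/L) and ATP (500 μmol/L) for 120 min at 37 °C. After EDTA stop, substrate phosphorylation was read by microfluidic mobility shift. IC50 came from logistic regression over 3-fold dilution series.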
# human TrkA, sequence (P04629 440-796): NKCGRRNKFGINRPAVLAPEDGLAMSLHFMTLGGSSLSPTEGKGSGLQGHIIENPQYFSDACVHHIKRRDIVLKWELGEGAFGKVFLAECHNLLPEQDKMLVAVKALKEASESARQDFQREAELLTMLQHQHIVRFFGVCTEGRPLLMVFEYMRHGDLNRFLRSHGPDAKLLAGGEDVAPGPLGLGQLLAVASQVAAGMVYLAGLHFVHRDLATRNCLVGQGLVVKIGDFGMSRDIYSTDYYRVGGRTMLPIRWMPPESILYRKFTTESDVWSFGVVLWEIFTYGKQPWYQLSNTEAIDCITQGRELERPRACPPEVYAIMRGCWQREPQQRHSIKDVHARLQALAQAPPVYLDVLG
row,IC50 [nM],Structure (SMILES)
1,< 100,COCCN1C[C@@H](NC(=O)Nc2c(C)c(-c3cnc(N4CC5(CCOCC5)C4)nc3)nn2-c2ccccc2)[C@H](c2ccnc(F)c2)O1 (racemic) [Compound I-408]
2,< 100,COCCN1C[C@@H](NC(=O)Nc2c(C)c(-c3cnc(OCCN(C)C)nc3)nn2-c2ccccc2)[C@H](c2ccnc(F)c2)O1 (racemic) [Compound I-409]
3,< 100,COCCN1C[C@@H](NC(=O)Nc2c(C)c(-c3cnc4c(c3)c(CN3CCCC3)nn4C)nn2-c2ccccc2)[C@H](c2ccnc(F)c2)O1 (racemic) [Compound I-412]
4,< 100,COCCN1C[C@@H](NC(=O)Nc2c(C)c(-c3cnc(N4CCNCC4)nc3)nn2-c2ccccc2)[C@H](c2ccnc(F)c2)O1 (racemic) [Compound I-414]
5,< 100,COCCN1C[C@@H](NC(=O)Nc2c(C)c(-c3cnc(N4CCNCC4)nc3)nn2-c2ccccc2)[C@H](c2cc(F)nc(F)c2)O1 (racemic) [Compound I-415]
6,< 100,COCCN1C[C@@H](NC(=O)Nc2c(C)c(-c3cnc(N4CCN(CC#N)CC4)nc3)nn2-c2ccccc2)[C@H](c2ccnc(F)c2)O1 (racemic) [Compound I-416]
7,< 100,COCCN1C[C@@H](NC(=O)Nc2c(C)c(-c3cnc(OC4CCN(C)CC4)nc3)nn2-c2ccccc2)[C@H](c2cc(F)nc(F)c2)O1 (racemic) [Compound I-418]
8,< 100,COCCN1C[C@@H](NC(=O)Nc2c(C)c(-c3cnc(N4CCN(CC#N)CC4)nc3)nn2-c2ccccc2)[C@H](c2cc(F)nc(F)c2)O1 (racemic) [Compound I-419]
9,< 100,COCCN1C[C@@H](NC(=O)Nc2c(C)c(-c3cnc4c(c3)c(CN3CCC(F)(F)C3)nn4C)nn2-c2ccccc2)[C@H](c2ccnc(F)c2)O1 (racemic) [Compound I-423]
10,< 100,COCCN1C[C@@H](NC(=O)Nc2c(C)c(-c3cnc(OC4CC4)nc3)nn2-c2ccccc2)[C@H](c2ccnc(F)c2)O1 (racemic) [Compound I-425]
11,< 100,COCCN1C[C@@H](NC(=O)Nc2c(C)c(-c3cnc4c(c3)ncn4C3CCN(C)CC3)nn2-c2ccccc2)[C@H](c2ccnc(F)c2)O1 (racemic) [Compound I-426]
12,< 100,COCCN1C[C@@H](NC(=O)Nc2c(C)c(-c3cnc4c(c3)OCCO4)nn2-c2ccccc2)[C@H](c2ccnc(F)c2)O1 (racemic) [Compound I-427]
13,< 100,COCCN1C[C@@H](NC(=O)Nc2c(C)c(-c3cnc4c(c3)CN(Cc3ccccc3)CC4)nn2-c2ccccc2)[C@H](c2ccnc(F)c2)O1 (racemic) [Compound I-428]
14,< 100,COCCN1C[C@@H](NC(=O)Nc2c(C)c(-c3cnc(OC)c(OC)c3)nn2-c2ccccc2)[C@H](c2cnc(F)c(F)c2)O1 (racemic) [Compound I-429]
15,< 100,COCCN1C[C@@H](NC(=O)Nc2c(C)c(-c3cnc4c(cnn4C)n3)nn2-c2ccccc2)[C@H](c2ccnc(F)c2)O1 (racemic) [Compound I-432]
16,< 100,COCCN1C[C@@H](NC(=O)Nc2c(C)c(-c3cnc(Br)nc3)nn2-c2ccccc2)[C@H](c2ccnc(F)c2)O1 (racemic) [Compound I-433]
17,< 100,COCCN1C[C@@H](NC(=O)Nc2c(C)c(-c3cnc4c(c3)c(CO)nn4C)nn2-c2ccccc2)[C@H](c2ccnc(F)c2)O1 (racemic) [Compound I-434]
18,< 100,COCCN1C[C@@H](NC(=O)Nc2c(C)c(-c3cnc(C(=O)OC)c(CF)c3)nn2-c2ccccc2)[C@H](c2ccnc(F)c2)O1 (racemic) [Compound I-435]
19,< 100,CNC(=O)c1ncc(-c2nn(-c3ccccc3)c(NC(=O)N[C@@H]3CN(CCOC)O[C@H]3c3ccnc(F)c3)c2C)cc1CF (racemic) [Compound I-437]
20,< 100,COCCN1C[C@@H](NC(=O)Nc2c(C)c(-c3cnc(C4[C@@H]5CC[C@H]4COC5)nc3)nn2-c2ccccc2)[C@H](c2ccnc(F)c2)O1 (mixture of isomers) [Compound I-438]
21,< 100,COCCN1C[C@@H](NC(=O)Nc2c(C)c(-c3cnc4c(c3)CN(C(C)=O)CC4)nn2-c2ccccc2)[C@H](c2ccnc(F)c2)O1 (racemic) [Compound I-439]
22,< 100,COCCN1C[C@@H](NC(=O)Nc2c(C)c(-c3cnc4c(c3)CN(C)CC4)nn2-c2ccccc2)[C@H](c2ccnc(F)c2)O1 (racemic) [Compound I-440]

row,IC50 [nM],Structure (SMILES)
1,100 to 1000,COCCN1C[C@@H](NC(=O)Nc2c(C)c(Oc3ccnc(C(F)(F)F)c3)nn2-c2ccccc2)[C@H](c2ccnc(F)c2)O1 (racemic) [Compound I-441]
2,100 to 1000,COCCN1C[C@@H](NC(=O)Nc2c(C)c(Oc3ccnc(F)c3)nn2-c2ccccc2)[C@H](c2ccnc(F)c2)O1 (racemic) [Compound I-442]
3,< 100,COCCN1C[C@@H](NC(=O)Nc2c(C)c(-c3cnc(OC4CCOCC4)nc3)nn2-c2ccccc2)[C@H](c2ccnc(F)c2)O1 (racemic) [Compound I-443]
4,< 100,COCCN1C[C@@H](NC(=O)Nc2c(C)c(-c3cnc(COC)nc3)nn2-c2ccccc2)[C@H](c2ccnc(F)c2)O1 (racemic) [Compound I-444]
5,< 100,COCCN1C[C@@H](NC(=O)Nc2c(C)c(-c3cnc(C4=CCN(C)CC4)nc3)nn2-c2ccccc2)[C@H](c2ccnc(F)c2)O1 (racemic) [Compound I-445]
6,< 100,COCCN1C[C@@H](NC(=O)Nc2c(C)c(-c3cnc4c(cnn4CC(=O)OC)c3)nn2-c2ccccc2)[C@H](c2ccnc(F)c2)O1 (racemic) [Compound I-446]
7,100 to 1000,COCC[C@@H]1C[C@@H](NC(=O)Nc2c(C)c(-c3cnn(C)c3)nn2-c2ccccn2)[C@H](c2ccc(F)c(F)c2)O1 (racemic) [Compound I-448]
8,< 100,CNC(=O)c1ccc(-c2nn(-c3ccccc3)c(NC(=O)N[C@@H]3CN(CCOC)O[C@H]3c3ccnc(F)c3)c2C)cn1 (racemic) [Compound I-452]
9,< 100,CNC(=O)c1ccc(-c2nn(-c3ccccc3)c(NC(=O)N[C@@H]3CN(CCOC)O[C@H]3c3cnc(F)c(F)c3)c2C)cn1 (racemic) [Compound I-453]
10,< 100,COCCN1C[C@@H](NC(=O)Nc2c(C)c(OCc3ccccn3)nn2-c2ccccc2)[C@H](c2ccnc(F)c2)O1 (racemic) [Compound I-454]
11,< 100,COCCN1C[C@@H](NC(=O)Nc2c(C)c(OCc3cccnc3)nn2-c2ccccc2)[C@H](c2ccnc(F)c2)O1 (racemic) [Compound I-455]
12,< 100,COCCN1C[C@@H](NC(=O)Nc2c(C)c(OCc3ccncc3)nn2-c2ccccc2)[C@H](c2ccnc(F)c2)O1 (racemic) [Compound I-456]
13,< 100,COCCN1C[C@@H](NC(=O)Nc2c(C)c(OCc3ccon3)nn2-c2ccccc2)[C@H](c2ccnc(F)c2)O1 (racemic) [Compound I-457]
14,< 100,COCCN1C[C@@H](NC(=O)Nc2c(C)c(-c3cnc(C(C)(C)O)c(F)c3)nn2-c2ccccc2)[C@H](c2ccnc(F)c2)O1 (racemic) [Compound I-459]
15,< 100,COCCN1C[C@@H](NC(=O)Nc2c(C)c(-c3cnc4c(c3)OCCO4)nn2-c2ccccc2)[C@H](c2cnc(F)c(F)c2)O1 (racemic) [Compound I-462]
16,< 100,COCCN1C[C@@H](NC(=O)Nc2c(C)c(-c3cnc(OC4COC4)nc3)nn2-c2ccccc2)[C@H](c2ccnc(F)c2)O1 (racemic) [Compound I-465]
17,< 100,COCCN1C[C@@H](NC(=O)Nc2c(C)c(-c3cnc4c(cnn4CC(=O)N4CCN(C)CC4)c3)nn2-c2ccccc2)[C@H](c2ccnc(F)c2)O1 (racemic) [Compound I-467]
18,< 100,COc1ncc(-c2nn(-c3ccccc3)c(NC(=O)N[C@@H]3CN(C)O[C@H]3c3ccc(F)c(F)c3)c2C)cn1 (racemic) [Compound I-468]
19,< 100,CNC(=O)c1cc(-c2nn(-c3ccccc3)c(NC(=O)N[C@@H]3CN(C)O[C@H]3c3ccc(F)c(F)c3)c2C)cnc1OC (racemic) [Compound I-469]
20,< 100,COCCN1C[C@@H](NC(=O)Nc2c(C)c(-c3ccc4nccn4c3)nn2-c2ccccc2)[C@H](c2ccnc(F)c2)O1 (racemic) [Compound I-470]
21,< 100,COCCN1C[C@@H](NC(=O)Nc2c(C)c(-c3ccn4ccnc4c3)nn2-c2ccccc2)[C@H](c2ccnc(F)c2)O1 (racemic) [Compound I-471]
22,< 100,COCCN1C[C@@H](NC(=O)Nc2c(C)c(OCc3cnn(C)c3)nn2-c2ccccc2)[C@H](c2ccnc(F)c2)O1 (racemic) [Compound I-472]

row,Structure (SMILES),IC50 [nM]
1,COCCN1C[C@@H](NC(=O)Nc2c(C)c(-c3cnc(N4C[C@H]5COC[C@@H](C4)N5)nc3)nn2-c2ccccc2)[C@H](c2ccnc(F)c2)O1 (racemic) [Compound I-421],< 100
2,COCCN1C[C@@H](NC(=O)Nc2c(C)c(-c3cnc(N4C[C@H]5COC[C@@H](C4)N5C)nc3)nn2-c2ccccc2)[C@H](c2ccnc(F)c2)O1 (racemic) [Compound I-422],< 100
3,COCCN1C[C@@H](NC(=O)Nc2c(C)c(-c3cnc4c(c3)c(CO[Si](C)(C)C(C)(C)C)nn4C)nn2-c2ccccc2)[C@H](c2ccnc(F)c2)O1 (racemic) [Compound I-424],< 100

# Same assay, conditions: human TrkA 1 nmol/L, ATP 500 μmol/L, 120 min at 37° C.; read-out: IC50 values (TrkA phosphorylation inhibition)
row,IC50 [nM],Structure (SMILES)
1,2.2,CCN1C[C@@H](NC(=O)Nc2c(C)c(-c3cnc(OC)c(C(=O)NC)c3)nn2-c2ccccc2)[C@H](c2ccc(F)c(F)c2)O1 (racemic) [Compound I-406]
2,2.5,COCCN1C[C@@H](NC(=O)Nc2c(C)c(-c3cnc4c(cnn4C4CCN(C)CC4)c3)nn2-c2ccccc2)[C@H](c2ccnc(F)c2)O1 (racemic) [Compound I-413]
3,3.1,COCCN1C[C@@H](NC(=O)Nc2c(C)c(-c3cnc(OCC4CC4)nc3)nn2-c2ccccc2)[C@H](c2ccnc(F)c2)O1 (racemic) [Compound I-431]
4,4,COCCN1C[C@@H](NC(=O)Nc2c(C)c(-c3cnc(OCC(F)F)nc3)nn2-c2ccccc2)[C@H](c2ccnc(F)c2)O1 (racemic) [Compound I-436]
